Patent US5159061A, “Atrial natriuretic peptide derivative” (Takeda Chemical Industries, Ltd., priority 1986, dated 1992)
Where two headings read alike, the source gives them in different places. Where a SMILES comes first, the peptide text is derived from it. Bridges are numbered along the chain shown (N, C = ends). [ ]: non-standard residue; d: D form. Aib = CC(C)(N)C(=O)O

Experiments:
[1] = the molecule shown is the open-chain precursor, disulfide bond, 2 steps
[2] = system: spontaneously hypertensive rats (SHR); experiment: Hypotensive action in spontaneously hypertensive rats (SHR); assay type: in vivo, rat; conditions: male SHR, 20 weeks old; intravenous 100 μg/250 μl/kg in physiological saline; maximum decrease in blood pressure, difference from preadministration value
Procedure: Hypotensive action in spontaneously hypertensive rats (SHR)
Three male SHRs at the age of 20 weeks in each group were anesthetized with pentobarbital (50 mg/kg, intraperitoneal administration); SP-10 and SP-45 polyethylene tubes (manufactured by Natsume Seisakusho, Japan) were inserted respectively into the groin artery and vein, and through each of these a cannula was passed to the neck site via the back subcutaneous tissue, and one end of the cannula was fixed there. The rats were used in experiments the following day. As a α-hANP derivatives, [Aib^6 ]-α-hANP[6-28] obtained in Example 1 and [Aib^6,Ile^12 ]-α-hANP[6-28] obtained in Example 8, and as a control, α-hANP[7-28], in solution in physiological saline, were each intravenously administered in the ratio of 100 μg/250 μl/kg of body weight. Hypotensive activities are shown as a degree of the maximum decrease in blood pressure (difference from the preadministration value) that occurred after the administration of the subject compound.

[3] = 53-membered ring, air (after HF deprotection)
[4] = 53-membered ring, air/NH4OAc/NH3 pH 6.9, water, 0.052 mM, 25.0 °C

H-Cys-Phe-Gly-Gly-Arg-Met-Asp-Arg-Ile-Gly-Ala-Gln-Ser-Gly-Leu-Gly-Cys-Asn-Ser-Phe-dArg-Tyr-OH
ring closure, isolated yield [1, 3]: 25%

H-Ala-Cys-Phe-Gly-Gly-Arg-Met-Asp-Arg-Ile-Gly-Ala-Gln-Ser-Gly-Leu-Gly-Cys-Asn-Ser-Phe-Arg-Tyr-OH
ring closure, isolated yield [1, 3]: 14%

H-Cys-Phe-Gly-Gly-Arg-DL-Chg-Asp-Arg-Ile-Gly-Ala-Gln-Ser-Gly-Leu-Gly-Cys-Asn-Ser-Phe-Arg-Tyr-OH
ring closure, isolated yield [1, 3]: 38%

H-Cys-Phe-βAla-Arg-Met-Asp-Arg-Ile-Gly-Ala-Gln-Ser-Gly-Leu-Gly-Cys-Asn-Ser-Phe-Arg-Tyr-OH
ring closure, isolated yield ([1]; 51-membered ring, air/NH4OAc/NH3 pH 6.9, water, 0.056 mM, 25.0 °C): 17%

H-Ile-Cys-Phe-Gly-Gly-Arg-Met-Asp-Arg-Ile-Gly-Ala-Gln-Ser-Gly-Leu-Gly-Cys-Asn-Ser-Phe-Arg-Tyr-OH
ring closure, isolated yield [1, 3]: 11%

H-Aib-Cys-Phe-Gly-Gly-Arg-Leu-Asp-Arg-Ile-Gly-Ala-Gln-Ser-Gly-Leu-Gly-Cys-Asn-Ser-Phe-Arg-Tyr-OH
ring closure, isolated yield [1, 3]: 22%

H-Cys-Phe-Gaba-Arg-Met-Asp-Arg-Ile-Gly-Ala-Gln-Ser-Gly-Leu-Gly-Cys-Asn-Ser-Phe-Arg-Tyr-OH
ring closure, isolated yield ([1]; 52-membered ring): 20%

H-Val-Cys-Phe-Gly-Gly-Arg-Met-Asp-Arg-Ile-Gly-Ala-Gln-Ser-Gly-Leu-Gly-Cys-Asn-Ser-Phe-Arg-Tyr-OH
ring closure, isolated yield [1, 3]: 16%

H-Cys-Phe-Ava-Arg-Met-Asp-Arg-Ile-Gly-Ala-Gln-Ser-Gly-Leu-Gly-Cys-Asn-Ser-Phe-Arg-Tyr-OH
ring closure, isolated yield ([1]; 53-membered ring, air/NH4OAc/NH3 pH 6.9, water, 0.055 mM, 25.0 °C): 30%

H-Aib-Cys-Phe-Gly-Gly-Arg-Met-Asp-Arg-Ile-Gly-Ala-Gln-Ser-Gly-Leu-Gly-Cys-Asn-Ser-Phe-Arg-Tyr-OH
ring closure, isolated yield [1, 4]: 12%

H-Aib-Cys-Phe-Gly-Gly-Arg-Nle-Asp-Arg-Ile-Gly-Ala-Gln-Ser-Gly-Leu-Gly-Cys-Asn-Ser-Phe-Arg-Tyr-OH
ring closure, isolated yield [1, 3]: 14.4%

CC[C@H](C)[C@@H]1NC(=O)[C@H](CCCNC(=N)N)NC(=O)[C@H](CC(=O)O)NC(=O)[C@H]([C@@H](C)CC)NC(=O)[C@H](CCCNC(=N)N)NC(=O)CNC(=O)CNC(=O)[C@H](Cc2ccccc2)NC(=O)[C@@H](NC(=O)C(C)(C)N)CSSC[C@@H](C(=O)N[C@@H](CC(N)=O)C(=O)N[C@@H](CO)C(=O)N[C@@H](Cc2ccccc2)C(=O)N[C@@H](CCCNC(=N)N)C(=O)N[C@@H](Cc2ccc(O)cc2)C(=O)O)NC(=O)CNC(=O)[C@H](CC(C)C)NC(=O)CNC(=O)[C@H](CO)NC(=O)[C@H](CCC(N)=O)NC(=O)[C@H](C)NC(=O)CNC1=O [[Aib^6, Ile^12]-α-hANP[6-28]] (H-[Aib]CFGGRIDRIGAQSGLGCNSFRY-OH; disulfide 2-18)
Degree of Decrease in Blood Pressure [2]: -90 ΔmmHg

H-Cys-Phe-dAla-Gly-Arg-Met-Asp-Arg-Ile-Gly-Ala-Gln-Ser-Gly-Leu-Gly-Cys-Asn-Ser-Phe-Arg-Tyr-OH
ring closure, isolated yield ([1]; 53-membered ring, air/NH4OAc/NH3 pH 6.9, water, 0.053 mM, 25.0 °C): 16%

CC[C@H](C)[C@@H]1NC(=O)[C@H](CCCNC(=N)N)NC(=O)[C@H](CC(=O)O)NC(=O)[C@H](CCSC)NC(=O)[C@H](CCCNC(=N)N)NC(=O)CNC(=O)CNC(=O)[C@H](Cc2ccccc2)NC(=O)[C@@H](NC(=O)C(C)(C)N)CSSC[C@@H](C(=O)N[C@@H](CC(N)=O)C(=O)N[C@@H](CO)C(=O)N[C@@H](Cc2ccccc2)C(=O)N[C@@H](CCCNC(=N)N)C(=O)N[C@@H](Cc2ccc(O)cc2)C(=O)O)NC(=O)CNC(=O)[C@H](CC(C)C)NC(=O)CNC(=O)[C@H](CO)NC(=O)[C@H](CCC(N)=O)NC(=O)[C@H](C)NC(=O)CNC1=O [[Aib^6]-α-hANP[6-28]] (H-[Aib]CFGGRMDRIGAQSGLGCNSFRY-OH; disulfide 2-18)
Degree of Decrease in Blood Pressure [2]: -70 ΔmmHg

H-Cys-Phe-Gly-Arg-Met-Asp-Arg-Ile-Gly-Ala-Gln-Ser-Gly-Leu-Gly-Cys-Asn-Ser-Phe-Arg-Tyr-OH
ring closure, isolated yield ([1]; 50-membered ring, air/NH4OAc/NH3 pH 6.9, water, 0.056 mM, 25.0 °C): 18%

H-Achc-Cys-Phe-Gly-Gly-Arg-Met-Asp-Arg-Ile-Gly-Ala-Gln-Ser-Gly-Leu-Gly-Cys-Asn-Ser-Phe-Arg-Tyr-OH
ring closure, isolated yield [1, 4]: 22%

H-dAla-Cys-Phe-Gly-Gly-Arg-Met-Asp-Arg-Ile-Gly-Ala-Gln-Ser-Gly-Leu-Gly-Cys-Asn-Ser-Phe-Arg-Tyr-OH
ring closure, isolated yield [1, 3]: 17%
